The target of series [1] is Aβ1-42 oligomers (Aβo) (Homo sapiens, UniProt P05067). The format is binding.
Series [2] has as its system monomeric amyloid-β. Particulars: cited from earlier work.
Series [3] concerns albumin. Particulars: cited from earlier work.

Chain of Aβ1-42 oligomers (Aβo) (P05067 672-713): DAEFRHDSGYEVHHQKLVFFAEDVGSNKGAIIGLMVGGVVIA

Consider `C=C(c1ccc(C(=O)O)cc1)c1cc2c(cc1C)C(C)(C)CCC2(C)C` [Bexarotene], for which, in series [1], the “Highest% STD” value turned out to be 14.60%.

In the case of solanezumab, in series [2], the “affinity for central epitope KLVFFAED” value is reported as “picomolar affinity”.

Take `CC(C(=O)O)c1ccc(-c2ccccc2)c(F)c1` (stereo not drawn) [flurbiprofen]: in series [3], the bound to albumin was > 99%.

The record behind these values is article PMC8179515 (Chemical Science, 2021).
